For orientation: LogP means the decadic logarithm of the partition coefficient of the neutral form, usually between octanol and water.

We go through two substances from patent US20070276134A1, “COMPOSITIONS AND METHODS FOR COMPLEXES OF NUCLEIC ACIDS AND ORGANIC CATIONS” (NASTECH PHARMACEUTICAL COMPANY INC., priority 2006, published 2007).

This series is described as follows: LogP determination in n-octanol and water, classical equilibrium partitioning method.

Procedure: A LogP determination was performed on the salts in n-octanol and water using the classical equilibrium partitioning method. This was performed to evaluate the hydrophobic physical properties of the peptide and determine if there was a difference in the apparent hydrophobicity of the salt form of the siRNA versus the control of the sodium salt of siRNA.

On to DOTAP, for which the “partitioning as a salt versus partitioning as the sodium salt siRNA complex of DOTAP” value (1-octanol) is listed as “distinctly different”.
For Sodium, the LogP (n-octanol and water, salt form of siRNA) is reported as −1.98.
